Earlier results in patent US20140302138A1, “EXTENDED RELEASE PHARMACEUTICAL COMPOSITIONS CONTAINING CARBAMAZEPINE” (priority 2011, published 2014).

NC(=O)N1c2ccccc2C=Cc2ccccc21 [Carbamazepine, 5H-dibenzo[b,f]azepine-5-carboxamide]
solubility in acetone (acetone): soluble
solubility in alcohol (alcohol): soluble
solubility in water (water): practically insoluble
